Results reported in paper PMC8179002, “Inhibitors of thiol-mediated uptake” (Chemical Science, 2020).
Like-named read-outs stand apart in the source and are kept apart here. Bridge positions count the residues as written; N and C are the ends. Peptide text beside a SMILES is read from it.

Assays:
[1] = system: cellular uptake of 2 in HeLa Kyoto cells; test: cells; assay type: cell-based; settings: for MIC against reporter 2: upon co-incubation
[2] = system: cellular uptake of 1 in HeLa Kyoto cells; test: cells; assay type: cell-based; settings: for minimal effective concentration: read-out: MIC, inhibition of cellular uptake of 1; for MIC (concentration that causes ∼15% reduction of reporter uptake), against reporter 1: pre-incubation time not given (Fig. 2: 1 h pre-incubation, 30 min with reporter; some 15 min); for IC50: read-out: IC50, inhibition of cellular uptake of 1
Procedure, shortened: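 HeLa Kyoto cells were pre-incubated with inhibitors at varying concentrations and times, washed, then given reporter 1 at 10 μM final for 30 min at 37°C; alternatively, inhibitors were kept during reporter exposure. Hoechst/PI staining and 10x high-content imaging gave mean intracellular fluorescence per cell and viability from PI-negative nuclei.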

[3] = HeLa, tpre 0.5 h, then tco 0.5 h co-incubation of inhibitor and 2 (10 µM)
[4] = HeLa, tpre 0.5 h, then tco 0.5 h co-incubation of inhibitor and 2 (10 µM), read-out: IC50, inhibition of cellular uptake of 2
[5] = HeLa, tpre 1 h with inhibitor, removal, tinc 0.5 h with 2 (10 µM)
[6] = HeLa, tpre 1 h with inhibitor, removal, tinc 0.5 h with 2 (10 µM), read-out: IC50, inhibition of cellular uptake of 2
[7] = HeLa, tpre 1.5 h, then tco 0.5 h co-incubation of inhibitor and 2 (10 µM)
[8] = HeLa, tpre 1.5 h, then tco 0.5 h co-incubation of inhibitor and 2 (10 µM), read-out: IC50, inhibition of cellular uptake of 2
[9] = HeLa, tpre 2 h with inhibitor, removal, tinc 0.5 h with 2 (10 µM)
[10] = HeLa, tpre 2 h with inhibitor, removal, tinc 0.5 h with 2 (10 µM), read-out: IC50, inhibition of cellular uptake of 2
[11] = HeLa, tpre 4 h with inhibitor, removal, tinc 0.5 h with 2 (10 µM)
[12] = HeLa, tpre 4 h with inhibitor, removal, tinc 0.5 h with 2 (10 µM), read-out: IC50, inhibition of cellular uptake of 2
[13] = HeLa, tpre 0.5 h with inhibitor, removal, tinc 0.5 h with 1 (10 µM)
[14] = HeLa, tpre 1 h with inhibitor, removal, tinc 0.5 h with 1 (10 µM)
[15] = HeLa, tpre 2 h with inhibitor, removal, tinc 0.5 h with 1 (10 µM)
[16] = HeLa Kyoto, HeLa, tpre 4 h with inhibitor, removal, tinc 0.5 h with 2 (10 µM), read-out: IC50, inhibition of cellular uptake of 2
[17] = HeLa Kyoto, HeLa, tpre 6 h with FBS, removal, tinc 0.5 h with 2 (10 µM), read-out: IC50, inhibition of cellular uptake of 2
[18] = HeLa, tpre 6 h with FBS, removal, tinc 0.5 h with 2 (10 µM)
[19] = HeLa, tpre 23.5 h with FBS, then tco 0.5 h co-incubation of inhibitor and 2 (10 µM)
[20] = HeLa Kyoto, 0.5 h, HeLa, tpre 0.5 h with inhibitor, removal, tinc 0.5 h with 1 (10 µM)
[21] = HeLa Kyoto, 0.5 h, HeLa, tpre 5.5 h with FBS, then tco 0.5 h co-incubation of inhibitor and 1 (10 µM)
[22] = HeLa Kyoto, 0.5 h, HeLa, tpre 23.5 h with FBS, then tco 0.5 h co-incubation of inhibitor and 1 (10 µM)
[23] = HeLa Kyoto, 1 h, HeLa, tpre 1 h with inhibitor, removal, tinc 0.5 h with 1 (10 µM)
[24] = HeLa Kyoto, 2 h, HeLa, tpre 2 h with inhibitor, removal, tinc 0.5 h with 1 (10 µM)
[25] = HeLa Kyoto, HeLa, tpre 1 h with inhibitor, removal, tinc 0.5 h with 1 (10 µM)
[26] = HeLa Kyoto, HeLa, tpre 2 h with inhibitor, removal, tinc 0.5 h with 1 (10 µM)
[27] = HeLa Kyoto, HeLa, tpre 5.5 h with FBS, then tco 0.5 h co-incubation of inhibitor and 1 (10 µM)
[28] = HeLa Kyoto, HeLa, tpre 23.5 h with FBS, then tco 0.5 h co-incubation of inhibitor and 1 (10 µM)

| SMILES | MIC, inhibition of cellular uptake of 2 [1, 3] [µM] | IC50 [1, 4] [µM] | MIC, inhibition of cellular uptake of 2 [1, 5] [µM] | IC50 [1, 6] [µM] | MIC, inhibition of cellular uptake of 2 [1, 7] [µM] | IC50 [1, 8] [µM] | MIC, inhibition of cellular uptake of 2 [1, 9] [µM] | IC50 [1, 10] [µM] | MIC, inhibition of cellular uptake of 2 [1, 11] [µM] | IC50 [1, 12] [µM] | MIC against reporter 2 ([1]; HeLa) | minimal effective concentration ([2]; 2 h) [µM] | MIC (concentration that causes ∼15% reduction of reporter uptake), against reporter 1 ([2]; HeLa) | IC50 [2, 13] [µM] | IC50 [2, 20] [µM] | minimal effective concentration [2, 20] [µM] | minimal effective concentration [2, 23] [µM] | minimal effective concentration [2, 24] [µM] | IC50 [2, 25] [µM] | IC50 [2, 26] [µM] | also measured |
| --- | --- | --- | --- | --- | --- | --- | --- | --- | --- | --- | --- | --- | --- | --- | --- | --- | --- | --- | --- | --- | --- |
| N[C@H]1CSSC[C@@H](C(=O)N[C@@H](CCC(=O)O)C(=O)O)NC(=O)CNC1=O [compound 19] (H-CGCE-OH; disulfide 1-3) | 5 | 46 ± 5 | > 1000 | > 1000 | 7 | 58 ± 10 | > 1000 | > 1000 | 900 | > 1000 | ≈ 5 μM | 400 | ≈ 300 μM | > 2000 | – | – | – | – | – | – | minimal effective concentration ([2]; 1 h): 400 µM; IC50 [2, 14]: > 2000 µM; IC50 [2, 15]: > 2000 µM |
| O=C(CN1C(=O)C2SSC1C(=O)N2CCOc1ccccc1)NCC(=O)OC[C@H]1OC(O)[C@H](O)[C@@H](O)[C@@H]1O (some centres unmarked) [compound 7] | – | – | – | – | – | – | – | – | 70 | – | – | – | ≈ 0.5 μM | – | 23 ± 4 | 0.5 | 0.5 | 0.2 | 27 ± 4 | 15 ± 1 | IC50 [1, 16]: > 100 µM; IC50 [1, 17]: > 200 µM; IC50 ([1]; HeLa Kyoto, HeLa, tpre 23.5 h with FBS, then tco 0.5 h co-incubation of inhibitor and 2 (10 µM), read-out: IC50, inhibition of cellular uptake of 2): 41 ± 4 µM; MIC, inhibition of cellular uptake of 2 [1, 18]: 180 µM; MIC, inhibition of cellular uptake of 2 [1, 19]: 15 µM; minimal effective concentration [2, 21]: 6 µM; minimal effective concentration [2, 22]: 54 µM; IC50 [2, 27]: 42 ± 4 µM; IC50 [2, 28]: > 100 µM |
| N[C@H]1CSSC[C@@H](C(=O)NCC(=O)O)NC(=O)[C@H](CCC(=O)O)NC1=O [compound 18] (H-CECG-OH; disulfide 1-3) | 4 | 44 ± 5 | 300 | > 1000 | 4 | 41 ± 4 | 200 | > 1000 | 100 | 859 ± 140 | ≈ 5 μM | 200 | ≈ 300 μM | > 2000 | – | – | – | – | – | – | IC50 ([2]; HeLa, tpre 0.5 h, then tco 0.5 h co-incubation of inhibitor and 1 (10 µM)): > 500 µM; IC50 [2, 14]: > 2000 µM; IC50 [2, 15]: > 2000 µM; IC50 ([2]; HeLa, tpre 5.5 h with FBS, then tco 0.5 h co-incubation of inhibitor and 1 (10 µM)): 1000 ± 110 µM; IC50 ([2]; HeLa, tpre 23.5 h with FBS, then tco 0.5 h co-incubation of inhibitor and 1 (10 µM)): 1000 ± 40 µM |
| O=C(O)CC[C@H](NC(=O)CCCCC1CCSS1(=O)=O)C(=O)O (some centres unmarked) [compound 15] | – | – | – | – | – | – | – | – | 150 | – | – | – | – | – | 407 ± 49 | 100 | 50 | 50 | 306 ± 30 | 298 ± 31 | IC50 ([1]; HeLa Kyoto, read-out: IC50, inhibition of cellular uptake of 2, HeLa, tpre 4 h with inhibitor, removal, tinc 0.5 h with 2 (10 µM)): > 500 µM; IC50 ([1]; HeLa Kyoto, read-out: IC50, inhibition of cellular uptake of 2, HeLa, tpre 23.5 h with FBS, then tco 0.5 h co-incubation of inhibitor and 2 (10 µM)): > 500 µM; MIC, inhibition of cellular uptake of 2 [1, 19]: < 20 µM; minimal effective concentration [2, 21]: 65 µM; minimal effective concentration [2, 22]: 55 µM; IC50 [2, 27]: 258 ± 33 µM; IC50 [2, 28]: 219 ± 16 µM |
| O=C(O)CC[C@H](NC(=O)CN1C(=O)C2SSC1C(=O)N2CCOc1ccccc1)C(=O)O (some centres unmarked) [compound 9] | – | – | – | – | – | – | – | – | 60 | – | – | – | – | – | 89 ± 9 | 15 | 7 | 7 | 86 ± 13 | > 100 | IC50 [1, 16]: > 100 µM; IC50 [1, 17]: > 200 µM; MIC, inhibition of cellular uptake of 2 [1, 18]: 80 µM |
